Patent US7910624B1, “Compositions for the treatment of blood disorders” (The Trustees of Boston University, priority 1995, dated 2011)

Legend:
bone marrow cells = settings: continuous intravenous administration; cited from earlier work
[1] = test system: BFU-e (burst forming unit-erythroid) colonies from peripheral blood mononuclear cells; assay: Stimulation of erythroid proliferation in cell cultures (BFU-e colony growth); assay type: cell-based, human; settings: 0.1 mM; 13-14 days; compared with control cultures
Description: Peripheral blood was collected from normal volunteers and patients with anemia due to sickle cell disease or thalassemia. Mononuclear cells were isolated by Ficoll-Hypaque (Pharmacia Biotech; Piscataway, N.J.) centrifugation and cultured in Iscove's Modified Dulbecco's Media (IMDM; GIBCO/BRL; Grand Island, N.Y.) supplemented with 10% fetal calf serum, 300 μg/ml glutamine, 3 units/ml IL-3 (Amgen; Thousand Oaks, Calif.), and 2 units/ml erythropoietin (Terry Fox Labs; Vancouver, B.C.). Chemical compounds were obtained from Sigma Chemical (St. Louis, Mo.) or Aldrich Chemical (Milwaukee, Wis.), unless otherwise indicated, and formulated into pharmaceutical compositions by dissolving in aqueous solutions of media or sterile water pH adjusted to about 7.4. Solutions were sterilized by passage at least once through 0.22 micron Nalgene filters and added to cell cultures at final concentrations that are pharmaceutically achievable in vivo (typically between about 0.1 mM to 2.0 mM). Cells were incubated with compounds for between 13-14 days at 37° C. in humidified 5% CO2, and fed and passed, as necessary. Colony growth, proportion of fetal globin-expressing cells and amounts of fetal globin production were assayed. Results are presented in Table 1 as BFU-e stimulation (colony growth).

[2] = test system: erythroid cells (peripheral blood cells); assay: Erythroid cell viability by Calcein-AM fluorescent staining (FIG. 2); assay type: cell-based; settings: 0.5 mM
Description: Compositions were tested for the ability to directly stimulate erythroid cell growth. Cell growth stimulation is a useful property for an agent to be used to treat anemias and distinguishes such agents from the cytotoxic drugs currently being tested for treatment of hemoglobinopathies. Cell viability analyses were performed using fluorescent staining to detect living cells. Cells were in log phase of growth in 6-well dishes when used in proliferation assays. For enumeration of living cells, wells were washed once with medium to remove nonadherent or dead cells. Remaining live cells were labeled with 2 μM 2′,7′-bis-(carboxyethyl)-5-(and 6)-carboxy-fluorescein acetoxy-methyl ester (Calcein-AM) (Molecular Probes; Eugene, Oreg.) for 20 minutes at 37° C. and washed once. Fluorescence intensity of live cells was read on a CytoFluor 2300 Fluorescence Plate Scanner (Millipore; Bedford, Mass.) at excitation and emission wavelengths of 485 and 530 nm, respectively. The fluorescence intensity of a well was proportional to the number of living cells in the well. Background fluorescence was measured separately for each plate and subtracted from all readings. Each experiment was performed in triplicate or quadruplicate. The standard deviation (SD) of repetitive readings was less than 30% of the mean. Results are depicted in FIG. 2.

[3] = test system: erythroid progenitor cells cultured from human cord blood; assay: Fetal globin expression in human cell cultures (3H-leucine labelled globin chains, densitometry); assay type: cell-based
Description: Compositions were tested for activity in inducing fetal globin expression and protein production in erythroid progenitor cells cultured from human cord blood and analyzed as described by S. P. Perrine et al. (Blood 74: 454-60, 1989). Briefly, mononuclear cells were cultured in IMDM with 30% fetal calf serum and 2 units erythropoietin per ml to induce erythroid differentiation. Colonies were harvested on day 12-13, incubated with radio-labelled (^3H) leucine, and further incubated in leucine-free media, still in the presence of compounds, overnight. Globin composition in the erythroid cells was analyzed by laser densitometry of electrophoretically separated globin chains stained with Coomassie blue, and by autoradiography. Treated cells were incubated for 12-13 days (Table 2, Experiments A and B) or overnight (Table 2, Experiment C) in the presence of the indicated compounds and compared to untreated control cells cultured from the same human subject.

[4] = test system: human erythroid cell line K562; assay: Cell viability / growth of K562 by Calcein-AM fluorescence; assay type: cell-based; settings: 0.5 mM; over 3 days
Description: Such activities might limit their utility for treatment of anemias such as occur in thalassemia, but alternatively would be useful for anticancer effects. To determine cell viability, human erythroid cells were cultured in the presence and absence of these compounds for 4 days and the amount of DNA fragmentation which occurred was measured.
Cell viability analyses were performed using fluorescent staining to detect living cells. Cells were in log phase of growth in 6-well dishes when used in proliferation assays. For enumeration of living cells, wells were washed once with medium to remove nonadherent or dead cells. Remaining live cells were labeled with Calcein-AM for 20 minutes at 37° C. and washed once. Fluorescence intensity of adherent live cells was read on a CytoFluor 2300 Fluorescence Plate Scanner (Millipore; Bedford, Mass.) at excitation and emission wavelengths of 485 and 530 nm, respectively. The fluorescence intensity of a well was proportional to the number of living cells in the well. Background fluorescence was measured separately for each plate and subtracted from all readings. Each experiment was performed in triplicate or quadruplicate. The standard deviation (SD) of repetitive readings was less than 30% of the mean.
At higher concentrations, still easily achievable in vivo, arginine butyrate (0.5 mM) and dihydrocinnamic acid (greater than 0.5 mM) inhibited growth of this tumor cell line by approximately 50%. Therefore, these compounds are also useful as anti-tumor agents.

anemic juvenile baboons = assay: In vivo reticulocyte proliferation and globin expression in phlebotomized anemic baboons; design: species or system baboon
Description: Experiments were performed to determine if administration of the chemical compositions could induce fetal globin gene expression in an in vivo model similar to humans (S. P. Perrin et al., Brit. J. Haematol. 88:555-61, 1994). Briefly, chemicals were prepared as sterile pharmaceutical solutions in pH adjusted sterile water. A variety of chemical compositions were administered sequentially to some baboons. After administration of one compound, a wash-out period with no compound administration was maintained until reticulocytes returned to base line prior to administration of the next compound. This was done, at least partly, to compare the magnitude of response which occurred within the same individual animal to different compounds.
Briefly, juvenile female baboons (2 years old) were catheterized with arterial and venous catheters and phlebotomized gradually every day to maintain a moderate anemia of 7.0 to 7.5 grams hemoglobin/dl. Fetal reticulocytes, the newly produced red blood cells containing fetal globin, were assayed using a monoclonal antibody against fetal globin (HbF) as described by G. Dover et al. (Blood 67:735-38, 1986). Briefly, blood was stained with two antibodies, one specific for reticulocytes and another against fetal globin protein. The amount of antibody bound cells was determined by FACS analysis. Globin chain synthesis was assayed as described by J. B. Clegg et al. (J. Mol. Biol. 19:91-108, 1966). Briefly, reticulocytes were radio-labeled with ^3H-leucine which was incorporated in equal proportions into actively synthesized globin chains. After incubation in leucine-free media, cells were washed, and globin proteins were separated and purified by column chromatography. Radioactivity incorporated into each peak is compared and the ratios of gamma to gamma plus beta globin calculated. Each animal served as its own control with baseline monitoring assays performed for 4-6 weeks before any drug was administered. Phlebotomy was continued daily, so that peripheral HbF levels in the animals were not considered to be accurate over the short treatment time-frames and were not monitored. Safety monitoring was performed by frequent physical examinations, quantitation of food eaten, activity and frequent chemistry and hematology monitoring. Complete blood counts were assayed before, during and after treatment. Results presented were not adjusted to account for the daily phlebotomy.

| Compound | increase in γ globin mRNA of bone marrow cells (bone marrow cells) | BFU-e Stimulation (colony growth) [1] | erythroid cell growth and proliferation compared to untreated controls (FIG. 2) [2] | Gamma Increase ([3]; Exp. A, 0.1 mM, 12-13 days, above untreated cells) | Gamma Increase ([3]; Exp. C, 0.1 mM, overnight) | Gamma Increase ([3]; Exp. C, 0.2 mM, overnight) | Gamma Increase ([3]; Exp. C, 0.5 mM, overnight) | growth of K562 [4] | fetal reticulocytes after treatment (anemic juvenile baboons; infused 4 days, 300 to 500 mg/kg per day, from 10%) | red blood cell count after treatment (anemic juvenile baboons; intravenous 1,000 mg/kg/day, 4 days, from 2.3) | total hemoglobin after treatment (anemic juvenile baboons; intravenous 1,000 mg/kg/day, 4 days, from 6.6) | packed red blood cell volume after treatment (anemic juvenile baboons; intravenous 1,000 mg/kg/day, 4 days, from 20.9%) |
| --- | --- | --- | --- | --- | --- | --- | --- | --- | --- | --- | --- | --- |
| Nc1ncn([C@@H]2O[C@H](CO)[C@@H](O)[C@H]2O)c(=O)n1 [AZA, 5-azacytidine] | five- to seven-fold | – | – | – | – | – | – | – | – | – | – | – |
| O=C(O)CCc1ccccc1 [DHC, Dihydrocinnamic acid] | – | 124% | either had no effect or stimulated erythroid cell growth and proliferation | 12.0% | 24% | 20.0% | 19% | either did not inhibit, or slightly enhanced growth | 17% | 2.73 ×10^6 cells/μl | 7.3 grams/dl | 22.7 % of the blood |
